From patent US6525059B1, “Substituted pyrazoles as p38 kinase inhibitors” (G. D. Searle & Company, priority 1998, dated 2003)

target: T1, human p38 kinase alpha (Homo sapiens, UniProt Q16539); assay: p38 kinase in vitro assay, phosphorylation of biotinylated PHAS-I with gamma 32P-ATP; assay type: biochemical; conditions: @ 1.0 uM
T1 construct: The coding region of the human p38a cDNA was obtained by PCR-amplification from RNA isolated from the human monocyte cell line THP.1; GST (N); made in house; host or cells: E. coli DH10B
T1 sequence (Q16539 whole entry): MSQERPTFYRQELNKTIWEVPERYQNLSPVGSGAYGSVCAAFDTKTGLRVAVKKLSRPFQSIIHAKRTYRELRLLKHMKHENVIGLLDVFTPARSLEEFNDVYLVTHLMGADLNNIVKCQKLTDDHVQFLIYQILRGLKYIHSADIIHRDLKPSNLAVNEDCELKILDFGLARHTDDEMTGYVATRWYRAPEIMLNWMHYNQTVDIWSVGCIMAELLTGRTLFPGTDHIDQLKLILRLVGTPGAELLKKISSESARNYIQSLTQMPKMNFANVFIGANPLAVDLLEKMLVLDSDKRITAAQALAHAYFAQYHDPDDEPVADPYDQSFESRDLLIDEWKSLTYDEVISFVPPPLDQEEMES
Experimental: The ability of compounds to inhibit human p38 kinase alpha was evaluated using two in vitro assay methods. In the first method activated human p38 kinase alpha phosphorylates a biotinylated substrate, PHAS-I (phosphorylated heat and acid stable protein-insulin inducible), in the presence of gamma ^32P-ATP (^32P-ATP). PHAS-I was biotinylated prior to the assay and provides a means of capturing the substrate which is phosphorylated during the assay. p38 Kinase was activated by MKK6. Compounds were tested in 10 fold serial dilutions over the range of 100 μM to 0.001 μM using 1% DMSO. Each concentration of inhibitor was tested in triplicate.
All reactions were carried out in 96 well polypropylene plates. Each reaction well contained 25 mM HEPES pH 7.5, 10 mM magnesium acetate and 50 μM unlabeled ATP. […] The reaction proceeded either for one hour or overnight at 30° C.
Following incubation, 20 μl of reaction mixture was transferred to a high capacity streptavidin coated filter plate (SAM-streptavidin-matrix, Promega) prewetted with phosphate buffered saline. […] Filter plates were air dried and 20 μl of scintillant was added. The plates were sealed and counted.

Compound	P38 alpha kinase % inhib @ conc.
O=C(NCc1[nH]nc(-c2ccc(F)cc2)c1-c1ccncc1)c1ccc(OC(F)(F)F)cc1 [Example B-0028]	69.0% @ 1.0 uM
COC(=O)C(=O)NCc1[nH]nc(-c2ccc(F)cc2)c1-c1ccncc1 [Example B-0025]	89.0% @ 1.0 uM

same assay, conditions: @ 1.0 uM; read-out: P38 alpha kinase % inhib @ conc.

Compound	inhibition at 1 µM
CC(C)[C@H]1CC[C@@H](C)C[C@@H]1OCC(=O)NCc1[nH]nc(-c2ccc(F)cc2)c1-c1ccncc1 [Example B-0084]	56%
O=C(NCc1[nH]nc(-c2ccc(F)cc2)c1-c1ccncc1)c1cccc(F)c1 [Example B-0069]	96%
O=S(=O)(NCc1[nH]nc(-c2ccc(F)cc2)c1-c1ccncc1)c1ccc(Cl)cc1Cl [Example B-0126]	66%
O=C(NCc1[nH]nc(-c2ccc(F)cc2)c1-c1ccncc1)c1cccnc1Cl [Example B-0053]	95%
O=S(=O)(NCc1[nH]nc(-c2ccc(F)cc2)c1-c1ccncc1)c1ccc(Cl)s1 [Example B-0144]	86%
COc1cccc(C(=O)NCc2[nH]nc(-c3ccc(F)cc3)c2-c2ccncc2)c1 [Example B-0075]	91%

same assay, conditions: @ 10.0 uM; read-out: P38 alpha kinase % inhib @ conc.

Compound	inhibition at 10 µM
COc1cc(OC)c(NC(=O)NCc2[nH]nc(-c3ccc(F)cc3)c2-c2ccncc2)cc1Cl [Example B-0187]	4%
O=C(NCc1[nH]nc(-c2ccc(F)cc2)c1-c1ccncc1)Nc1ccc(Cl)c(Cl)c1 [Example B-0173]	33%

same assay, conditions: p38α in vitro, PHAS-I assay procedure; read-out: p38^1 IC50

Compound	IC50
OCCNc1cc(-c2c[nH]nc2-c2ccc(F)cc2)ccn1 [Example A-280]	134 nM
Fc1ccc(-c2n[nH]c(NCCN3CCOCC3)c2-c2ccncc2)cc1 [Example A-218, N-[5-(4-fluorophenyl)-4-(4-pyridinyl)-1H-pyrazol-3-yl]-4-morpholineethanamine]	44 nM

same assay, conditions: read-out: P38 alpha kinase IC50

Compound	IC50
CC(=O)Nc1ccc(S(=O)(=O)N[C@H](C)c2[nH]nc(-c3ccc(F)cc3)c2-c2ccncc2)cc1 [Example B-0431]	210 nM
C[C@@H](NC(=O)c1ccno1)c1[nH]nc(-c2ccc(F)cc2)c1-c1ccncc1 [Example B-0364]	1440 nM
C[C@@H](NC(=O)c1cc(C(F)(F)F)ccc1F)c1[nH]nc(-c2ccc(F)cc2)c1-c1ccncc1 [Example B-0506]	940 nM
CC(=O)N[C@H](C)c1[nH]nc(-c2ccc(F)cc2)c1-c1ccncc1 [Example B-0359]	450 nM
Cc1cccc(C(=O)N[C@H](C)c2[nH]nc(-c3ccc(F)cc3)c2-c2ccncc2)c1 [Example B-0515]	420 nM
O=C(NCc1[nH]nc(-c2ccc(F)cc2)c1-c1ccncc1)c1cccc(F)c1 [Example B-0292]	220 nM
C[C@@H](NS(=O)(=O)c1cc(S(=O)(=O)c2ccccc2)cs1)c1[nH]nc(-c2ccc(F)cc2)c1-c1ccncc1 [Example B-0484]	280 nM
C[C@@H](NC(=O)N[C@H](C)c1[nH]nc(-c2ccc(F)cc2)c1-c1ccncc1)c1ccccc1 [Example B-0417]	910 nM
CCCS(=O)(=O)NC(Cc1ccccc1)c1[nH]nc(-c2ccc(F)cc2)c1-c1ccncc1 (centres unmarked) [Example B-0715]	3200 nM
NC(=O)NC(Cc1ccccc1)c1[nH]nc(-c2ccc(F)cc2)c1-c1ccncc1 (centres unmarked) [Example B-0769]	12700 nM
O=S(=O)(NCc1[nH]nc(-c2ccc(F)cc2)c1-c1ccncc1)c1cc(Cl)ccc1Cl [Example B-0229]	< 100 nM
COc1ccc(NC(=O)N[C@H](C)c2[nH]nc(-c3ccc(F)cc3)c2-c2ccncc2)cc1 [Example B-0419]	850 nM
COc1ccc(CC(=O)N[C@H](C)c2[nH]nc(-c3ccc(F)cc3)c2-c2ccncc2)cc1OC [Example B-0371]	490 nM
Cc1noc(C)c1S(=O)(=O)N[C@H](C)c1[nH]nc(-c2ccc(F)cc2)c1-c1ccncc1 [Example B-0476]	560 nM

system: TNF-α; assay: LPS stimulation of TNF production by U937 cells; assay type: cell-based, human; conditions: @ 1.0 uM
Experimental: Fifty million cells in 100 ml media were induced to terminal monocytic differentiation by 24 hour incubation with 20 ng/ml phorbol 12-myristate 13-acetate (Sigma). The cells were washed by centrifugation (200×g for 5 min) and resuspended in 100 ml fresh medium. After 24-48 hours, the cells were harvested, centrifuged, and resuspended in culture medium at 2 million cells/ml.
Compounds were prepared as 10 mM stock solutions in DMSO and diluted in culture medium to yield a final DMSO concentration of 0.1% in the cell assay. LPS (E coli, 100 ng/ml final concentration) was then added at a volume of 0.02 ml. After 4 hour incubation at 37° C., the amount of TNF-α released in the culture medium was quantitated by ELISA. Inhibitory potency is expressed as IC50 (μM).
In vitro whole cell assay for measuring the ability of the compounds to inhibit TNF production in human U937 cells stimulated with LPS are shown in the column identified as: […]

Compound	U937 Cell % inhib @ conc.
Cc1ccc(C(=O)N[C@H](C)c2[nH]nc(-c3ccc(F)cc3)c2-c2ccncc2)cc1 [Example B-0494]	30.0% @ 1.0 uM

same assay, conditions: @ 1.0 uM; TNF production, LPS-stimulated U937 cells

Compound	U937 Cell % inhib @ conc. (uM)
Cc1noc(C)c1S(=O)(=O)NCCCc1[nH]nc(-c2ccc(F)cc2)c1-c1ccncc1 [Example B-1281]	8.0% @ 1.0 uM

same assay, conditions: Homo sapiens, U-937, @ 1.0 uM; read-out: U937 Cell % inhib @ conc.

Compound	inhibition at 1 µM
CC(=O)Nc1ccc(S(=O)(=O)N[C@H](C)c2[nH]nc(-c3ccc(F)cc3)c2-c2ccncc2)cc1 [Example B-0431]	64%
COc1cc(OC)c(NC(=O)NCc2[nH]nc(-c3ccc(F)cc3)c2-c2ccncc2)cc1Cl [Example B-0187]	14%
C[C@@H](NC(=O)c1ccno1)c1[nH]nc(-c2ccc(F)cc2)c1-c1ccncc1 [Example B-0364]	27%
C[C@@H](NC(=O)c1cc(C(F)(F)F)ccc1F)c1[nH]nc(-c2ccc(F)cc2)c1-c1ccncc1 [Example B-0506]	43%
C[C@@H](NS(=O)(=O)c1ccccc1Br)c1[nH]nc(-c2ccc(F)cc2)c1-c1ccncc1 [Example B-0454]	80%
C[C@@H](NS(=O)(=O)c1cc(Cl)cc(Cl)c1)c1[nH]nc(-c2ccc(F)cc2)c1-c1ccncc1 [Example B-0464]	91%
C[C@@H](NS(=O)(=O)c1ccccc1)c1[nH]nc(-c2ccc(F)cc2)c1-c1ccncc1 [Example B-0386]	54%
C[C@@H](NC(=O)c1cccc(F)c1F)c1[nH]nc(-c2ccc(F)cc2)c1-c1ccncc1 [Example B-0518]	64%
COc1ccc(NC(=O)N[C@H](C)c2[nH]nc(-c3ccc(F)cc3)c2-c2ccncc2)c(OC)c1 [Example B-0422]	40%
C[C@@H](NS(=O)(=O)c1cccc(Cl)c1Cl)c1[nH]nc(-c2ccc(F)cc2)c1-c1ccncc1 [Example B-0445]	83%
Cc1ccccc1S(=O)(=O)NCc1[nH]nc(-c2ccc(F)cc2)c1-c1ccncc1 [Example B-0245]	24%
O=S(=O)(NCc1[nH]nc(-c2ccc(F)cc2)c1-c1ccncc1)c1ccc(C(F)(F)F)cc1 [Example B-0237]	60%
C[C@@H](NS(=O)(=O)c1ccc(Cl)cc1)c1[nH]nc(-c2ccc(F)cc2)c1-c1ccncc1 [Example B-0433]	92%
O=C(NCc1[nH]nc(-c2ccc(F)cc2)c1-c1ccncc1)c1cccs1 [Example B-0193]	6%
Cc1noc(C)c1C(=O)N[C@H](C)c1[nH]nc(-c2ccc(F)cc2)c1-c1ccncc1 [Example B-0529]	73%
O=S(=O)(NCc1[nH]nc(-c2ccc(F)cc2)c1-c1ccncc1)c1ccccc1Br [Example B-0234]	68%
C[C@@H](NC(=O)c1cccc(C#N)c1)c1[nH]nc(-c2ccc(F)cc2)c1-c1ccncc1 [Example B-0499]	37%
C[C@@H](NC(=O)c1ccccn1)c1[nH]nc(-c2ccc(F)cc2)c1-c1ccncc1 [Example B-0379]	24%
C[C@@H](NS(=O)(=O)c1ccc2ccccc2c1)c1[nH]nc(-c2ccc(F)cc2)c1-c1ccncc1 [Example B-0440]	63%
Cc1noc(C)c1C(=O)NCc1[nH]nc(-c2ccc(F)cc2)c1-c1ccncc1 [Example B-0304]	28%
C[C@@H](NC(=O)N(C)c1ccccc1)c1[nH]nc(-c2ccc(F)cc2)c1-c1ccncc1 [Example B-0409]	30%
C[C@@H](NC(=O)c1ccc(F)cc1F)c1[nH]nc(-c2ccc(F)cc2)c1-c1ccncc1 [Example B-0524]	77%
C[C@@H](NS(=O)(=O)Cc1ccccc1[N+](=O)[O-])c1[nH]nc(-c2ccc(F)cc2)c1-c1ccncc1 [Example B-0442]	91%
C[C@@H](NS(=O)(=O)/C=C/c1ccccc1)c1[nH]nc(-c2ccc(F)cc2)c1-c1ccncc1 [Example B-0388]	36%
Cc1cccc(Cl)c1S(=O)(=O)N[C@H](C)c1[nH]nc(-c2ccc(F)cc2)c1-c1ccncc1 [Example B-0467]	77%
CCN(CC)C(=O)N[C@H](C)c1[nH]nc(-c2ccc(F)cc2)c1-c1ccncc1 [Example B-0420]	49%
C[C@@H](NS(=O)(=O)c1cccc(Cl)c1)c1[nH]nc(-c2ccc(F)cc2)c1-c1ccncc1 [Example B-0462]	97%
C[C@@H](NS(=O)(=O)c1ccc(Br)cc1)c1[nH]nc(-c2ccc(F)cc2)c1-c1ccncc1 [Example B-0432]	89%

same assay, conditions: Homo sapiens, U-937, LPS-stimulated U937 cells; read-out: U937 Cell Assay IC50

Compound	IC50
Cc1ccc(-c2[nH]nc(C)c2-c2ccncc2)cc1 [Example A-5]	274 nM

same assay, conditions: Homo sapiens, U-937, LPS-stimulated U937 cells; read-out: U937 IC50

Compound	IC50
OCCn1ncc(-c2ccnc(NCc3ccc(F)cc3)c2)c1-c1ccc(F)cc1 [Example A-290, 5-(4-fluorophenyl)-4-[2-[[(4-fluorophenyl)methyl]amino]-4-pyridinyl]-1H-pyrazole-1-ethanol]	6020 nM

same assay, conditions: Homo sapiens, U-937, TNF production, LPS-stimulated human U937 cells; read-out: U937 Cell IC50

Compound	IC50
O=C(NCc1[nH]nc(-c2ccc(F)cc2)c1-c1ccncc1)c1cccs1 [Example B-0208]	> 1000 nM
